#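 Protocol summary: plate cells (96-well), add compound at 5 concentrations, incubate 48 h, interpolate endpoints linearly. Here, GI50 denotes the concentration required for 50% inhibition of growth.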 Calls of active or inactive are those of the source. No stated cut-off is given here; in the data, active = GI50 up to about 1.1 µM and inactive = higher.
# Key:
# Test in all cases: growth of human tumour cells (NCI), 48 h
# 786-0 = test system: 786-0
# CAKI-1 = test system: CAKI-1
# COLO 205 = test system: COLO 205
# EKVX = test system: EKVX
# HL-60 = test system: HL-60
# MDA-MB-435 = test system: MDA-MB-435
# NCI-H23 = test system: NCI-H23
# NCI-H522 = test system: NCI-H522
# OVCAR-3 = test system: OVCAR-3
# PC-3 = test system: PC-3
# RPMI-8226 = test system: RPMI-8226
# RXF 393 = test system: RXF 393
# SF-268 = test system: SF-268
# SF-539 = test system: SF-539
# SK-MEL-28 = test system: SK-MEL-28
# SK-MEL-2 = test system: SK-MEL-2
# T47D = test system: T47D
# UACC-257 = test system: UACC-257
Structure (SMILES),GI50 (786-0),GI50 (CAKI-1),GI50 (COLO 205),GI50 (EKVX),GI50 (HL-60),GI50 (MDA-MB-435),GI50 (NCI-H23),GI50 (NCI-H522),GI50 (OVCAR-3),GI50 (PC-3),GI50 (RPMI-8226),GI50 (RXF 393),GI50 (SF-268),GI50 (SF-539),GI50 (SK-MEL-28),GI50 (SK-MEL-2),GI50 (T47D),GI50 (UACC-257)
O=C(O)c1cc(-c2ccc3c(O)ccc(O)c3c2)ccc1O,16.6 µM (inactive),16.6 µM (inactive),19.5 µM (inactive),18.2 µM (inactive),> 100 µM (inactive),17.5 µM (inactive),25.8 µM (inactive),15.3 µM (inactive),20.9 µM (inactive),12.9 µM (inactive),4.78 µM (inactive),12.9 µM (inactive),29.1 µM (inactive),16 µM (inactive),18.1 µM (inactive),17.2 µM (inactive),6.4 µM (inactive),17.4 µM (inactive)
COc1cc2cc(C(=O)N3CC(COS(C)(=O)=O)c4c3cc([N+](=O)[O-])c3ccccc43)[nH]c2c(OC)c1OC (stereo not drawn),0.752 µM (active),0.398 µM (active),> 35.6 µM (inactive),> 31.6 µM (inactive),0.794 µM (active),> 31.6 µM (inactive),2.78 µM (inactive),2.99 µM (inactive),> 31.6 µM (inactive),22.9 µM (inactive),2.92 µM (inactive),18.3 µM (inactive),10.5 µM (inactive),4.05 µM (inactive),> 31.6 µM (inactive),7.71 µM (inactive),> 31.6 µM (inactive),> 31.6 µM (inactive)
C(=C\c1cccs1)/c1cccc(/C=C/c2cccs2)n1,35.3 µM (inactive),> 100 µM (inactive),32.1 µM (inactive),> 100 µM (inactive),> 100 µM (inactive),> 100 µM (inactive),> 100 µM (inactive),1.53 µM (inactive),50.8 µM (inactive),> 100 µM (inactive),> 100 µM (inactive),> 100 µM (inactive),2.61 µM (inactive),> 100 µM (inactive),> 100 µM (inactive),> 100 µM (inactive),6.14 µM (inactive),> 100 µM (inactive)
CN(C)CCNc1nc2ccccc2c2c1CCCC2,16.4 µM (inactive),16.9 µM (inactive),22.9 µM (inactive),37.9 µM (inactive),14.8 µM (inactive),18.2 µM (inactive),33.3 µM (inactive),16.3 µM (inactive),30.8 µM (inactive),26.5 µM (inactive),20.5 µM (inactive),8.65 µM (inactive),32.1 µM (inactive),28.2 µM (inactive),17.7 µM (inactive),17.2 µM (inactive),16.7 µM (inactive),15.1 µM (inactive)
O=C1O/C(=C(/Br)c2ccc(Cl)c(Cl)c2)c2ccccc21,> 10 µM (inactive),> 10 µM (inactive),> 10 µM (inactive),> 10 µM (inactive),> 10 µM (inactive),> 10 µM (inactive),> 10 µM (inactive),> 10 µM (inactive),> 10 µM (inactive),> 10 µM (inactive),> 10 µM (inactive),> 10 µM (inactive),> 10 µM (inactive),> 10 µM (inactive),> 10 µM (inactive),> 10 µM (inactive),> 10 µM (inactive),> 10 µM (inactive)
Cc1cnc2nc(-c3cccc4ccccc34)cc(O)c2c1,0.000791 µM (active),0.000646 µM (active),0.000708 µM (active),0.00282 µM (active),0.000232 µM (active),0.000211 µM (active),0.00179 µM (active),0.000261 µM (active),0.000281 µM (active),0.00121 µM (active),0.000487 µM (active),0.000346 µM (active),0.000516 µM (active),0.000618 µM (active),0.000619 µM (active),0.000335 µM (active),26 µM (inactive),0.000254 µM (active)

# Source: ChEMBL document CHEMBL1201862, “PubChem BioAssay data set” (2004)
